# Measurements as given in patent US6743640B2, “Fluorescent polymer-QTL approach to biosensing” (priority 2000, dated 2004).
# Biological target: avidin (Gallus gallus, UniProt P02701)
# Test: Competitive avidin-biotin fluorescence quench assay with 263 PRU cyanine polymer
# Method: A preferred embodiment for using a cyanine polymer/QTL approach consists of a competitive assay based on selective quenching of a cyanine polymer solution. For example, a 263 polymer repeat unit (PRU) cyanine polymer can be conveniently used in a fluorescence quench competitive bioassay. A competitive assay involving the avidin-biotin receptor-ligand system was conducted as follows: 500 μl of 0.1 μM of this polymer was added to the filtrate (lower) chamber of each of 3 separate Microcon YM-30 centrifugal filter vials. In each of these devices the filtrate chamber is separated from the retentate (upper) chamber by a 30 kilodalton (KD) nominal molecular weight cutoff (NMWCO) cellulose membrane. This membrane is impermeable to the 66 KD protein avidin but allows the biotin-anthraquinone conjugate to pass. […] Since each avidin has four biotin binding sites, this sub-stoichiometric ratio ensures full binding of all QTL conjugate to avidin. The three retentate chambers were charged with a.) 0.5 μM D-Biotin, b. and c.) 0.8 μM AQS-biotin conjugate complexed with 1.0 μM avidin. The 3 tubes were then each sealed and incubated for 10 minutes, after which time 0.5 μM D-Biotin was added to vial c. […] The fluorescence emission of all three filtrates was then measured at 20.0° C.+/−0.1° C. on a SPEX FluoroMax-3. […]
# Chain of avidin (P02701 25-152, species assumed): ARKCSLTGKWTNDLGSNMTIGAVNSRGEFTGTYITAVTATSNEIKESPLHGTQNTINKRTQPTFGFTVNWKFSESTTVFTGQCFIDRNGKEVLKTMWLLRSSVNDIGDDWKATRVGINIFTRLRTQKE
structure (smiles),measurement,setting,value
"O=C(O)CCCC[C@@H]1SC[C@@H]2NC(=O)N[C@@H]21 [biotin, D-Biotin]",quenching of cyanine polymer after adding competitor to QTL-avidin solution,0.8 μM AQS-biotin conjugate with 1.0 μM avidin,quenching occurred
same,"quenching of cyanine polymer in filtrate, sample alone","sample alone in retentate chamber, 30 KD membrane, 263 PRU polymer 0.1 μM",no quenching
